Reference: paper PMC5437240, “Computational and structural evidence for neurotransmitter-mediated modulation of the oligomeric states of human insulin in storage granules” (The Journal of Biological Chemistry, 2017)

Target: T1, porcine hexameric Zn2+-insulin (Sus scrofa, UniProt P01315)
T1 construct: gene INS; mature two-chain disulfide-linked insulin, cut from (pre)proinsulin; Zn2+ hexamer (two Zn per hexamer), T6 start state
Experiment: UV-visible 4H3N chromophore titration, Hill fit
Assay type: binding
Conditions: read-out: Kd ± S.D.
From the text: UV-visible 4H3N chromophore titration, Hill fit on porcine hexameric Zn2+-insulin

T1 sequence (P01315 25-54): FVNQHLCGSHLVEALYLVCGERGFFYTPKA
T1 sequence (P01315 88-108): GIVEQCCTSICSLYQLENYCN

| SMILES | Kd [mM] |
| --- | --- |
| Oc1ccccc1 [phenol] | 0.86 ± 0.13 |
| NCCc1c[nH]c2ccc(O)cc12 [serotonin] | 3.34 ± 0.52 |
